From US3962039A, “Analytical procedure for thyroid hormones” (Center for Laboratory Medicine, priority 1975, dated 1976)
Where a name gives a salt, the structure may show the parent alone.

Test system: serum protein
Conditions: pH 1.0, 30 minutes
Experimental: Contents of the tubes are set out in TABLE II below:
The four tubes were incubated at room temperature for 30 minutes. At the end of the incubation, 4.0 ml of sodium barbital buffer (0.075 M, pH 8.6) was added and mixed with the contents of each tube. The radioactivity of each tube was measured with a gammacounter.
Each of the tubes was then transferred to an Amicon ultrafiltration cone with a centrifuge tube attachment. The tubes were centrifuged for 45 minutes at 2,200 × g at room temperature. The entire ultrafiltrate was collected and the radioactivity counted.
a = radioactivity before ultrafiltration,
b = the radioactivity in the ultrafiltrate

Molecule: Cl [HCl, Hydrochloric acid]
- destruction of thyroxine binding sites of the serum proteins: only partially destroy

Molecule: pepsin
- destruction of thyroxine binding sites of the serum proteins: completely destroyed
